Laboratory results: patent publication US20240158392A1 (Janssen Biotech, Inc., priority 2021, published 2024)

Target: SIK2 (Homo sapiens, UniProt Q9H0K1)
Experiment: SIK2 Enzymatic Assay High Version 2 (High ATP)
Format: biochemical
Conditions: not given
Description: All steps were performed at room temperature. Compounds were pre-plated onto an assay plate using an Echo acoustic dispenser (Labcyte, E550 or E555) at 80 nL per well. Enzyme prepared in assay buffer at 6 nM (2× final concentration) was added at 4 μL per well using the Multidrop Combi (Thermo Fisher—used for all additions in this assay) to the assay plate, spun for 1 min at 1000 rpm (Allegra 6KR Beckman Coulter centrifuge), and incubated with compound for 30 minutes. Assay buffer containing 6 mM ATP and 400 μM HDAC5tide (2× of final concentration for each substrate) was added at 4 μL per well to the assay plate and then spun as above and incubated for 2 hours. […] ADP-Glo Max Reagent (prepared and aliquoted as per manufacturer instructions) was then added at 8 μL per well, spun and incubated for 2 hours. ADP-Glo Max Detection (prepared and aliquoted as per manufacturer instructions) was added at 8 μL per well to the assay plate, which was spun and incubated for 1 hour. The plate is then read on the Pherastar (BMG Labtech) using a luminescence read. Gain is set between 2200-2500.

Sequence of SIK2 (Q9H0K1 whole entry, species assumed): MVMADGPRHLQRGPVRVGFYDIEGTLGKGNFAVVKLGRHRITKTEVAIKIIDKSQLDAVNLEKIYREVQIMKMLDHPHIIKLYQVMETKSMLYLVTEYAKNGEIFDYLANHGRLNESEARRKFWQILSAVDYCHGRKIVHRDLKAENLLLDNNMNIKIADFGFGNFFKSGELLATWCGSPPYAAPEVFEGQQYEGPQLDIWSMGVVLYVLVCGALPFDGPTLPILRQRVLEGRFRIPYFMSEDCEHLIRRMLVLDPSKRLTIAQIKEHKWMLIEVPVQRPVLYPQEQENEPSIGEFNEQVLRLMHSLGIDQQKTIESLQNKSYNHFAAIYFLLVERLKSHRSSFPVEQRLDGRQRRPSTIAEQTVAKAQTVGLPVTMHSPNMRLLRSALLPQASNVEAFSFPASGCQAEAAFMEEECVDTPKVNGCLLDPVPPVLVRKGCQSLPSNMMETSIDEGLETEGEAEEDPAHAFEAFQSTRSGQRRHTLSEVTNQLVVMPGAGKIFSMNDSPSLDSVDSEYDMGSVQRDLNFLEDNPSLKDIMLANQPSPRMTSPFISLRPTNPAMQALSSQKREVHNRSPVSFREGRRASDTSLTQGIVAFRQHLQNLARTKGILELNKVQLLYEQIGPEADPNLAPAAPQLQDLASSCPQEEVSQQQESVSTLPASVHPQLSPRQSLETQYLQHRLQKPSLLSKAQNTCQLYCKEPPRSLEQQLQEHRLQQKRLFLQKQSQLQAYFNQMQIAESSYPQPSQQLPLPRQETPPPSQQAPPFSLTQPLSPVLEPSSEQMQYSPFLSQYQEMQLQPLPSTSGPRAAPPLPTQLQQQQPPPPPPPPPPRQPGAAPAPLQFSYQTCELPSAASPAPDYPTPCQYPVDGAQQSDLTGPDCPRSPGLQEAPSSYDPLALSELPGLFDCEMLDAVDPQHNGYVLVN

SMILES | IC50 [µM]
Cc1cc(-c2ccn3nc(NC(=O)C4CC4)cc3c2)c(O[C@H]2CN(C)[C@H]2C)cn1 (single isomer, unassigned) [Example 456, (*S, *S)—N-[5-[5-(1,2-dimethylazetidin-3-yl)oxy-2-methyl-4-pyridyl]pyrazolo[1,5-a]pyridin-2-yl]cyclopropanecarboxamide] | 0.0204

Same assay, conditions: enzyme 6 nM, 6 mM ATP and 400 μM HDAC5tide (each 2× final concentration); 30 minutes pre-incubation, 2 hours; ADP-Glo Max luminescence; read-out: SIK2 high ATP IC50 (μM) (Test Example 2)

SMILES | IC50 [µM]
Cc1cc(-c2ccn3nc(Nc4cc(C)nc(C)n4)cc3c2)c(O[C@H]2CCS(=O)(=O)N(C)C2)cn1 (single isomer, unassigned) [Example 355, (*S)—N-(2,6-dimethylpyrimidin-4-yl)-5-[2-methyl-5-(2-methyl-1,1-dioxo-thiazinan-4-yl)oxy-4-pyridyl]pyrazolo[1,5-a]pyridin-2-amine] | 0.00681
Cc1cc(-c2ccn3nc(Nc4cc(C)nc(C)n4)cc3c2)c(OC[C@H]2CCS(=O)(=O)C2)cn1 (single isomer, unassigned) [Example 363, (*R)—N-(2,6-dimethylpyrimidin-4-yl)-5-[5-[(1,1-dioxothiolan-3-yl)methoxy]-2-methyl-4-pyridyl]pyrazolo[1,5-a]pyridin-2-amine] | 0.0035
Cc1cc(-c2ccn3nc(Nc4cc(C)nc(C)n4)cc3c2)c(OC[C@@H]2CCS(=O)(=O)C2)cn1 (single isomer, unassigned) [Example 364, (*S)—N-(2,6-dimethylpyrimidin-4-yl)-5-[5-[(1,1-dioxothiolan-3-yl)methoxy]-2-methyl-4-pyridyl]pyrazolo[1,5-a]pyridin-2-amine] | 0.0441
Cc1cc(-c2ccn3nc(NC(=O)C4CC4)cc3c2)c(O[C@H]2CCN[C@@H](C(F)(F)F)C2)cn1 (single isomer, unassigned) [Example 446] | 0.00318
Cc1cc(-c2ccn3nc(NC(=O)C4CC4)cc3c2)c(OC[C@@]2(F)CCNC2)cn1 (single isomer, unassigned) [Example 447, (*R)—N-[5-[5-[(3-fluoropyrrolidin-3-yl)methoxy]-2-methyl-4-pyridyl]pyrazolo[1,5-a]pyridin-2-yl]cyclopropanecarboxamide] | 0.0246
Cc1cc(-c2ccn3nc(NC(=O)C4CC4)cc3c2)c(OC[C@]2(F)CCNC2)cn1 (single isomer, unassigned) [Example 448, (*S)—N-[5-[5-[(3-fluoropyrrolidin-3-yl)methoxy]-2-methyl-4-pyridyl]pyrazolo[1,5-a]pyridin-2-yl]cyclopropanecarboxamide] | 0.0469
Cc1cc(-c2ccn3nc(NC(=O)C4CC4)cc3c2)c(OCC2(F)CCN(C)C2)cn1 (single isomer, unassigned) [Example 449, *R—N-[5-[5-[(3-fluoro-1-methyl-pyrrolidin-3-yl)methoxy]-2-methyl-4-pyridyl]pyrazolo[1,5-a]pyridin-2-yl]cyclopropanecarboxamide] | 0.0472
Cc1cc(-c2ccn3nc(NC(=O)C4CC4)cc3c2)c(OCC2(C)CCN2C)cn1 (single isomer, unassigned) [Example 450, (*S)—N-[5-[5-[(1,2-dimethylazetidin-2-yl)methoxy]-2-methyl-4-pyridyl]pyrazolo[1,5-a]pyridin-2-yl]cyclopropanecarboxamide] | 0.04
Cc1cc(-c2ccn3nc(NC(=O)C4CC4)cc3c2)c(OC[C@@H](O)C(F)(F)F)cn1 (single isomer, unassigned) [Example 454, (*R)—N-[5-[2-methyl-5-[(2R)-3,3,3-trifluoro-2-hydroxy-propoxy]-4-pyridyl]pyrazolo[1,5-a]pyridin-2-yl]cyclopropanecarboxamide] | 0.0134
CO[C@H]1CN(C)C[C@@H]1COc1cnc(C)cc1-c1ccn2nc(NC(=O)C3CC3)cc2c1 (single isomer, unassigned) [Example 461, Trans-*R, *R—N-[5-[5-[(4-methoxy-1-methyl-pyrrolidin-3-yl)methoxy]-2-methyl-4-pyridyl]pyrazolo[1,5-a]pyridin-2-yl]cyclopropanecarboxamide] | < 0.000847
Cc1cc(-c2ccn3nc(NC(=O)C4CC4)cc3c2)c(OC[C@H](N)c2ccccc2)cn1 (single isomer, unassigned) [Example 465] | 0.0129
Cc1cc(-c2ccn3nc(NC(=O)C4CC4)cc3c2)c(OC[C@@H](N)c2ccccc2)cn1 (single isomer, unassigned) [Example 467] | 0.0304
Cc1cc(-c2ccn3nc(Nc4cccnn4)cc3c2)c(OC[C@H]2CNCC(C)(C)O2)cn1 (single isomer, unassigned) [Example 516, (*R)-5-[5-[(6,6-dimethylmorpholin-2-yl)methoxy]-2-methyl-4-pyridyl]-N-pyridazin-3-yl-pyrazolo[1,5-a]pyridin-2-amine] | 0.0528
Cc1cc(-c2ccn3nc(NC(=O)C4CC4)cc3c2)c(OC[C@]2(F)CCN(C)C2)cn1 (single isomer, unassigned) [Example 519, (*S)—N-[5-[5-[(3-fluoro-1-methyl-pyrrolidin-3-yl)methoxy]-2-methyl-4-pyridyl]pyrazolo[1,5-a]pyridin-2-yl]cyclopropanecarboxamide] | 0.0251
Cc1cc(-c2ccn3nc(NC(=O)C4CC4)cc3c2)c(OC[C@@]2(O)CCN(C)C2)cn1 (single isomer, unassigned) [Example 522, (*R)—N-[5-[5-[(3-hydroxy-1-methyl-pyrrolidin-3-yl)methoxy]-2-methyl-4-pyridyl]pyrazolo[1,5-a]pyridin-2-yl]cyclopropanecarboxamide] | 0.013
Cc1cc(-c2ccn3nc(Nc4cc(C)nc(C)n4)cc3c2)c(O[C@@H]2COC(C)(C)C2)cn1 (single isomer, unassigned) [Example 533, (*S)—N-(2,6-dimethylpyrimidin-4-yl)-5-[5-(5,5-dimethyltetrahydrofuran-3-yl)oxy-2-methyl-4-pyridyl]pyrazolo[1,5-a]pyridin-2-amine] | 0.00543
Cc1cc(-c2ccn3nc(Nc4cc(C)nc(C)n4)cc3c2)c(O[C@H]2COC[C@H]2C)cn1 (single isomer, unassigned) [Example 534, (3*R, 4*R)—N-(2,6-dimethylpyrimidin-4-yl)-5-[2-methyl-5-(4-methyltetrahydrofuran-3-yl)oxy-4-pyridyl]pyrazolo[1,5-a]pyridin-2-amine] | 0.0145

Second part, the molecule after the results:

IC50 [µM] | SMILES
0.0107 | Cc1cc(-c2ccn3nc(Nc4cc(C)nc(C)n4)cc3c2)c(OC[C@]2(C)CCOC2)cn1 (single isomer, unassigned) [Example 535, (*R)—N-(2,6-dimethylpyrimidin-4-yl)-5-[2-methyl-5-[(3-methyltetrahydrofuran-3-yl)methoxy]-4-pyridyl]pyrazolo[1,5-a]pyridin-2-amine]
0.0535 | Cc1cc(-c2ccn3nc(Nc4cc(C)nc(C)n4)cc3c2)c(OC[C@@]2(C)CCOC2)cn1 (single isomer, unassigned) [Example 536, (*S)—N-(2,6-dimethylpyrimidin-4-yl)-5-[2-methyl-5-[(3-methyltetrahydrofuran-3-yl)methoxy]-4-pyridyl]pyrazolo[1,5-a]pyridin-2-amine]
0.0606 | Cc1cc(-c2ccn3nc(Nc4cc(C)nc(C)n4)cc3c2)c(OC[C@@H]2COC(C)(C)C2)cn1 (single isomer, unassigned) [Example 539, (*R)—N-(2,6-dimethylpyrimidin-4-yl)-5-[5-[(5,5-dimethyltetrahydrofuran-3-yl)methoxy]-2-methyl-4-pyridyl]pyrazolo[1,5-a]pyridin-2-amine]
0.0585 | Cc1cc(-c2ccn3nc(Nc4cc(C)nc(C)n4)cc3c2)c(OC[C@H]2COC(C)(C)C2)cn1 (single isomer, unassigned) [Example 540, (*S)—N-(2,6-dimethylpyrimidin-4-yl)-5-[5-[(5,5-dimethyltetrahydrofuran-3-yl)methoxy]-2-methyl-4-pyridyl]pyrazolo[1,5-a]pyridin-2-amine]
0.016 | Cc1cc(-c2ccn3nc(Nc4cc(C)nc(C)n4)cc3c2)c(OC[C@@H]2COC3(CCCC3)O2)cn1 (single isomer, unassigned) [Example 543, (*R)—N-(2,6-dimethylpyrimidin-4-yl)-5-[5-(6,9-dioxaspiro[4.4]nonan-8-ylmethoxy)-2-methyl-4-pyridyl]pyrazolo[1,5-a]pyridin-2-amine]
0.0147 | Cc1cc(-c2ccn3nc(Nc4cc(C)nc(C)n4)cc3c2)c(OC[C@H]2COC3(CCCC3)O2)cn1 (single isomer, unassigned) [Example 544, (*S)—N-(2,6-dimethylpyrimidin-4-yl)-5-[5-(6,9-dioxaspiro[4.4]nonan-8-ylmethoxy)-2-methyl-4-pyridyl]pyrazolo[1,5-a]pyridin-2-amine]
0.014 | Cc1cc(-c2ccn3nc(Nc4cc(C)nc(C)n4)cc3c2)c(OCC2CC(=O)N(C)C2)cn1 (single isomer, unassigned) [Example 547, (*R)-4-[[4-[2-[(2,6-dimethylpyrimidin-4-yl)amino]pyrazolo[1,5-a]pyridin-5-yl]-6-methyl-3-pyridyl]oxymethyl]-1-methyl-pyrrolidin-2-one]
0.0462 | Cc1cc(-c2ccn3nc(Nc4cc(C)nc(C)n4)cc3c2)c(OC[C@H](O)C2(C)CC2)cn1 (single isomer, unassigned) [Example 548, (*R)-2-[[4-[2-[(2,6-dimethylpyrimidin-4-yl)amino]pyrazolo[1,5-a]pyridin-5-yl]-6-methyl-3-pyridyl]oxy]-1-(1-methylcyclopropyl)ethanol]
